Measured values from patent US20230331727A1, “METHOD FOR THE PRODUCTION OF LUMATEPERONE AND ITS SALTS” (EGIS GYOGYSZERGYAR ZRT., priority 2017, published 2023).

Legend:
[1] = Storage stability of the amorphous salt by x-ray powder diffraction; format: physicochemical; conditions: storage at room temperature in a sealed vessel; XRD curves after production and after storage essentially the same (FIG. 5)
Excerpt: The reason for this is that the general experience with amorphous active substances is that they are less chemically stable, also while amorphous substances are left to stand, optionally, during storage, or in the pharmaceutical preparation itself they partially or completely transform into a crystalline form or into a mixture of several crystalline forms forming a morphologically inhomogeneous (non-uniform) active substance. Furthermore the solubility of the unstable amorphous compound usually differs from the solubility of the crystalline active substance, a morphological change during storage may lead to a change in the effect of the preparation. However, contrary to the general expectations it was surprising to experience that the formula (III) amorphous lumateperone salt according to the invention, in which salt the molar ratio of the formula (I) lumateperone and p-toluenesulfonic acid is 1:1, remains stable for 3 months (see FIG. 5) without transforming into the very stable polymorph form A or other form. […] It can be seen that the two curves are essentially the same, no peaks characteristic of crystalline forms are apparent even after storage. […] [table] [table]

[2] = DSC measurement of the amorphous tosylate; format: physicochemical; conditions: 30° C. - 190° C., 10° C./min, open Al crucible
Procedure: According to DSC measurements the amorphous form formed with p-toluenesulfonic acid according to the invention only transforms into the crystalline form A at a temperature of around 120° C. This supports that the amorphous form is suitable for the production of pharmaceutical preparations. In other words the advantage of the invention is that the amorphous salt according to the invention is morphologically uniform and stable. Therefore, it is not expected to transform into another form in the pharmaceutical preparation, and the quality of the preparations, primarily its dissolution characteristics are not expected to change. The morphological uniformity is supported by the x-ray powder diffractogram of the novel salt, it confirms its uniform crystal structure and enables the identification of the form even in a pharmaceutical preparation, thereby making it possible to monitor the quality at a later time, and differentiate it from other crystalline polymorphous forms. [table]

- remains stable without transforming into the very stable polymorph form A or other form [1]: 3 months
- temperature at which the amorphous form transforms into the crystalline form A [2]: around 120 °C
SMILES: CN1CCN2c3c(cccc31)[C@@H]1CN(CCCC(=O)c3ccc(F)cc3)CC[C@@H]12.Cc1ccc(S(=O)(=O)O)cc1
